Test [1] concerns the target T1, Small ubiquitin-related modifier 1 (Homo sapiens, UniProt P63165). The test can be described thus: inhibitors of SUMO1 peptide binding, dose response, biochemical, fluorescence polarization, uHTS hits (AID 624382). It counts as functional. As to conditions: read-out: IC50_Mean. (Polarisation of emitted light reports the rotation of a fluorescent probe.)
The target of test [2] is T1, Small ubiquitin-related modifier 1. The test can be described thus: inhibitors of SUMO1 partner interactions, dose response, biochemical, FRET (AID 624383). Type of test: functional. As to conditions: read-out: IC50_Mean.
A short description of test [3]: HEp-2 cell cytotoxicity, dose response, cytotoxicity control for RSV inhibitor project, HTS (AID 2410). It counts as functional. As to conditions: human respiratory syncytial virus.
In test [4] the target is SWI/SNF-related matrix-associated actin-dependent regulator of chromatin subfamily A member 2 (Homo sapiens, UniProt P51531). The test can be described thus: Luminescence-based cell-based high throughput dose response assay to identify activators of the function of SWI/SNF related, matrix associated, actin dependent regulator of chromatin, subfamily a, member 2 (SMARCA2, BRM). Type of test: functional.

Test [5] is described as follows: Counterscreen for activators of the function of SWI/SNF related, matrix associated, actin dependent regulator of chromatin, subfamily a, member 2 (SMARCA2, BRM): Luminescence-based cell-based high throughput dose response assay to identify non-selective compounds using the VP16 reporter assay. Type of test: functional.
The target in test [6] is T2, Short transient receptor potential channel 4 (Mus musculus, UniProt Q9QUQ5).
T2 sequence (Q9QUQ5 whole entry): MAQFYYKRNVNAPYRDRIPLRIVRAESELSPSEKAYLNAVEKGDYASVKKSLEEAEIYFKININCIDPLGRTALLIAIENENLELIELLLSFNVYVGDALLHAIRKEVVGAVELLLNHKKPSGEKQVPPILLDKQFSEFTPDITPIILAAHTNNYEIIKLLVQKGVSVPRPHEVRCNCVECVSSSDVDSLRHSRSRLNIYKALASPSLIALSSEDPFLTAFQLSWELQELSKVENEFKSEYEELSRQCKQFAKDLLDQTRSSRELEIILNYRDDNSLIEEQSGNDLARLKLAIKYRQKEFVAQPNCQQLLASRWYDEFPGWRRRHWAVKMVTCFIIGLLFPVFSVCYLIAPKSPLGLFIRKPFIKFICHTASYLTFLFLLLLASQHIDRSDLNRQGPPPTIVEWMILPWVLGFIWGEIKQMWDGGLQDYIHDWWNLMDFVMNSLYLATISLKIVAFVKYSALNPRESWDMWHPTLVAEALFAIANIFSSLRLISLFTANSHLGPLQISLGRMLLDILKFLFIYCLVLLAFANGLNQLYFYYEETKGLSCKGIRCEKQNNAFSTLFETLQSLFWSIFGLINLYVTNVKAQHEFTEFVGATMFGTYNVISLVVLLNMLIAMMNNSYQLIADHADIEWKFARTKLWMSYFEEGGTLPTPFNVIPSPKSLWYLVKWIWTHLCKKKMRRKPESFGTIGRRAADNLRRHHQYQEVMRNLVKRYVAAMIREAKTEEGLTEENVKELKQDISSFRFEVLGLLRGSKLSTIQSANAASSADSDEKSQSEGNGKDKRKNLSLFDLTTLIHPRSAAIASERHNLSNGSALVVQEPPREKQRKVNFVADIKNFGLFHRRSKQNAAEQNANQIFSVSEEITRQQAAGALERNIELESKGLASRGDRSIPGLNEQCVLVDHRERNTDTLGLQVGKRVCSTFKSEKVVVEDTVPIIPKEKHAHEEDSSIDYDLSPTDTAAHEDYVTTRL
Description: mouse TRPC4 channel activators, dose response, cell-based, HEK293 TRPC4/mu-opioid, Fluo-4 calcium (AID 434937). Type of test: functional.

For test [7], the target named is T3, Low molecular weight phosphotyrosine protein phosphatase (Homo sapiens, UniProt P24666).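 Further: Dose-response confirmation assay measuring inhibition of LMPTP enzyme activity by fluorescence intensity read-out.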
T3 sequence (P24666 whole entry): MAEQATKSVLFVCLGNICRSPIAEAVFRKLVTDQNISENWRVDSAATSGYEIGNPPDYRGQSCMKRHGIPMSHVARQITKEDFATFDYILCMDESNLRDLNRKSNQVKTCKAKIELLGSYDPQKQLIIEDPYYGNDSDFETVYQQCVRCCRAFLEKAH
Type of test: functional. As to conditions: read-out: IC50_Mean.

For test [8], the target named is T4, Tyrosine-protein phosphatase non-receptor type 22 (Homo sapiens, UniProt Q9Y2R2).
T4 sequence (Q9Y2R2 whole entry): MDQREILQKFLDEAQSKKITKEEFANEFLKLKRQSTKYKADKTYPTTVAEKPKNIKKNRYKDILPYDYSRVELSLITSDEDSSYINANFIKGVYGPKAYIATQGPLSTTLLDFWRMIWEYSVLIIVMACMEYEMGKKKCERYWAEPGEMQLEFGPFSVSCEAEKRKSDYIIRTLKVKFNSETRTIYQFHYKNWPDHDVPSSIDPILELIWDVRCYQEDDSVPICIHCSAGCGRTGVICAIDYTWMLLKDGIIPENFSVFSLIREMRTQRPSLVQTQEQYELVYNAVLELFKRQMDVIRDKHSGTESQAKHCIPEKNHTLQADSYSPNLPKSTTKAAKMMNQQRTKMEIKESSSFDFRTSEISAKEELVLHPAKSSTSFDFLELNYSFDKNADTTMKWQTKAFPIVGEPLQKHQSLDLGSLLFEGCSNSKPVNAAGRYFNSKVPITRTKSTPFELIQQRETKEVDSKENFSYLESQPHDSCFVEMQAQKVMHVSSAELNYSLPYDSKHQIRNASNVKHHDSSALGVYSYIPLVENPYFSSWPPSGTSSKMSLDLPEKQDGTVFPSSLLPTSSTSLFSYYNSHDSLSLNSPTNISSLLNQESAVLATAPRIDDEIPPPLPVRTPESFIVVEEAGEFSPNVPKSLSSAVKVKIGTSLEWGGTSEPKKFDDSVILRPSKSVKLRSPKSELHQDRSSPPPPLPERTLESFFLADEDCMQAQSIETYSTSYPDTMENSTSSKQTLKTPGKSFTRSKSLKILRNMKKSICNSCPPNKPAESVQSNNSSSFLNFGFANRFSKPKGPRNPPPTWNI
Description: LYP phosphatase inhibition for selectivity, dose response, selectivity assay for LMPTP inhibitor project, biochemical, fluorescence, LYP catalytic domain (AID 652006). Particulars: read-out: IC50_Mean. Type of test: functional.

The target in test [9] is Photoreceptor-specific nuclear receptor (Homo sapiens, UniProt Q9Y5X4). It counts as functional, cell-based.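 Further: CHO-S cells with Gal4-NCOR and VP16-NR2E3 two-hybrid luciferase reporter.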
Test [10] addresses T5, Methionyl-tRNA synthetase, putative (Trypanosoma brucei brucei, UniProt Q38C91).
T5 sequence (Q38C91 whole entry): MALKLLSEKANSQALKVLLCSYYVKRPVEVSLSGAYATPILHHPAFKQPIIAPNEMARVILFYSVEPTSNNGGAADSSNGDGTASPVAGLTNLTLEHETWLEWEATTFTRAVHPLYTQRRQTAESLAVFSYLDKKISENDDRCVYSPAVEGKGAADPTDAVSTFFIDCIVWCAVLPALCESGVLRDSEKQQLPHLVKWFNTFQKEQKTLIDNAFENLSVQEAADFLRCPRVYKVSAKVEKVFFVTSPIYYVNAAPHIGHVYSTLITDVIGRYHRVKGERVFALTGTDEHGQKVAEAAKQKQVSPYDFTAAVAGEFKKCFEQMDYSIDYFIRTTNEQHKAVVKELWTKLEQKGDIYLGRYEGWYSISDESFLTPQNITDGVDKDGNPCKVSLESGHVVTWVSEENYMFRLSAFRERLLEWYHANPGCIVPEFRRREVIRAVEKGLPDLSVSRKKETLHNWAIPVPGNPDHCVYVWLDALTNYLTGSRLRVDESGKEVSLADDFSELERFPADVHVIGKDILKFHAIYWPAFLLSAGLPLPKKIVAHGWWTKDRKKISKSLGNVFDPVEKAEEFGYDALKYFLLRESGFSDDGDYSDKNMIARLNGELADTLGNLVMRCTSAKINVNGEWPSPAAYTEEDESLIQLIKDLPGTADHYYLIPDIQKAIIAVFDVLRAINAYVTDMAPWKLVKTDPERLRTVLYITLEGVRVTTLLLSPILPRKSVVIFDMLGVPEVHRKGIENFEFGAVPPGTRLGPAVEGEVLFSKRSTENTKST
Type of test: functional, Trypanosoma brucei brucei strain 927/4 GUTat10.1.

Test [11] in a line: Counterscreen for inhibitors of Trypanosoma brucei methionyl tRNA synthetase (MetRS): Luminescence-based cell-based high throughput dose response assay to identify compounds that are cytotoxic to Jurkat human T lymphocyte cells. It counts as functional. On the technique in general: Counterscreens check selectivity or assay interference.
The target in test [12] is T5, Methionyl-tRNA synthetase, putative. Type of test: functional, Trypanosoma brucei brucei strain 927/4 GUTat10.1. The source holds these as a separate data set.
For another test, the target named is T6, Aminopeptidase N (Plasmodium falciparum FcB1/Columbia, UniProt O96935).
T6 sequence (O96935 whole entry): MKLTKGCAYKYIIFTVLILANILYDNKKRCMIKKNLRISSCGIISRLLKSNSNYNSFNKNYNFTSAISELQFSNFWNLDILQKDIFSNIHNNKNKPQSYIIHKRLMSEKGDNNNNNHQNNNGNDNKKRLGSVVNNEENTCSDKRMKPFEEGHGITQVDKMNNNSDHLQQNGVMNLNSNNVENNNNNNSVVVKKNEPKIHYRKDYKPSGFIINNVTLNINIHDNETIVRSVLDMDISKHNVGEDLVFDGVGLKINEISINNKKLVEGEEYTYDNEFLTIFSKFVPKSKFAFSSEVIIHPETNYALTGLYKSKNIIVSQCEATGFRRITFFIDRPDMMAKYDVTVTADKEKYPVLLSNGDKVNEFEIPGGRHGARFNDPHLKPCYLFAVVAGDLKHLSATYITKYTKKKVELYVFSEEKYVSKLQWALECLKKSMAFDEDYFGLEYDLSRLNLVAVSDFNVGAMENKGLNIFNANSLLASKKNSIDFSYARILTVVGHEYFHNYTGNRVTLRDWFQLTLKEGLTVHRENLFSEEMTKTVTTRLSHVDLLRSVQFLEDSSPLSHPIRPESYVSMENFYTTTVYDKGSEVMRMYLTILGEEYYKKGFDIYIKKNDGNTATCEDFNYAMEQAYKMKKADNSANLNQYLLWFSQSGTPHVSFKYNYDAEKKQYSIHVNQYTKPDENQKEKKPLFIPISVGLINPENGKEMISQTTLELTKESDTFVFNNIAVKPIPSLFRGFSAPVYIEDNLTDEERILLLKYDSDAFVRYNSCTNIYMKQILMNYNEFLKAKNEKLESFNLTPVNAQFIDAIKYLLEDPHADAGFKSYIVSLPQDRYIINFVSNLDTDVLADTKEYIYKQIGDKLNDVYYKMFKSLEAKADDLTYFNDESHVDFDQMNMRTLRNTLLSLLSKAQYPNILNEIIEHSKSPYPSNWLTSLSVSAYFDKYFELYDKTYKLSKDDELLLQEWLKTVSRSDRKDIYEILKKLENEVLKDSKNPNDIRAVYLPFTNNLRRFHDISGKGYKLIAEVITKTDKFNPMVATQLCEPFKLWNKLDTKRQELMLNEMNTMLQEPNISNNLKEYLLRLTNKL
Description: P. falciparum M1AAP inhibitors, biochemical, fluorogenic H-Leu-NHMec substrate, 1536-well (AID 1445). Set-up: species or system Plasmodium falciparum 3D7, 3D7.

The subject of test [13] is Streptococcus sp. 'group A'. The test can be described thus: growth inhibition of control SK(-) GAS strain, dose response, counter-screen for streptokinase expression inhibitor project, luminescence, kanamycin, BacTiterGlo, confirmation (AID 1900). Type of test: functional, organism-based.
The next test relates to Streptococcus. The test can be described thus: Group A Streptococcus viability loss, dose response, counter-screen for streptokinase expression inhibitor project, luminescence, BacTiterGlo (AID 1915).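 Further: potency for reduction of bacterial viability or growth.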 Type of test: functional, organism-based.
The target in test [14] is T7, Probable nicotinate-nucleotide adenylyltransferase (Staphylococcus aureus (strain N315), UniProt P65502). It counts as functional, Staphylococcus aureus subsp. aureus N315.
The target in test [15] is T7, Probable nicotinate-nucleotide adenylyltransferase. Type of test: functional, Staphylococcus aureus subsp. aureus N315. Particulars: read-out: IC50_Mean.
The target in test [16] is ADP-ribosylation factor GTPase-activating protein 1 (Rattus norvegicus, UniProt Q62848). Description: Fluorescence polarization-based biochemical high throughput dose response screening assay to identify inhibitors of ADP-ribosylation factor GTPase activating protein 1 (ARFGAP1). Type of test: functional.
Test [17] has as its target 5-hydroxytryptamine receptor 2A (Mus musculus, UniProt P35363). Type of test: functional, cell-based.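 Further: CHO-K1 cells with tagged receptor and beta-arrestin; agonist potency measured as compound-induced activation of the receptor.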

These results are taken from ChEMBL document CHEMBL1201862, “PubChem BioAssay data set” (2004).

Activity calls are given as the source filed them.

T7 sequence (P65502 whole entry): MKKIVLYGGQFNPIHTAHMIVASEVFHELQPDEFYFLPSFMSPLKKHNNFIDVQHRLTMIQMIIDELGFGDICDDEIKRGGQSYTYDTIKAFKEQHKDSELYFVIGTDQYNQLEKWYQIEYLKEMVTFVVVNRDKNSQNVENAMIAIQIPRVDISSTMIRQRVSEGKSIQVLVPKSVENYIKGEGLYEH
Sequence of Photoreceptor-specific nuclear receptor (Q9Y5X4 whole entry, the tested form may be a part): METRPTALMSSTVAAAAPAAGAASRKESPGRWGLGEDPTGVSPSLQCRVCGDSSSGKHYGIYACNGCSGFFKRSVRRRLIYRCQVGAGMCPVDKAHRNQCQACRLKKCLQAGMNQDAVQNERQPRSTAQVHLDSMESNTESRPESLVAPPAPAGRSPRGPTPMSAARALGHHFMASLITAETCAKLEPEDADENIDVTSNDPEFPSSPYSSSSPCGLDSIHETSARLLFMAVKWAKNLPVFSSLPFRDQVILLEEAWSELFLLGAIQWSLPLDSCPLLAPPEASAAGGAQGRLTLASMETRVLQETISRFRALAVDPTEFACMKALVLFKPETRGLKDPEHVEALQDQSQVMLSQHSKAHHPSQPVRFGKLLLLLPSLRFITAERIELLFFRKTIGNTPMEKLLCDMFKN
T1 sequence (P63165 whole entry): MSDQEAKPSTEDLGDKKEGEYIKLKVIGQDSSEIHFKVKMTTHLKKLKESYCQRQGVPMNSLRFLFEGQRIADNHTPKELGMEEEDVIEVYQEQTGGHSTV
Sequence of ADP-ribosylation factor GTPase-activating protein 1 (Q62848 whole entry): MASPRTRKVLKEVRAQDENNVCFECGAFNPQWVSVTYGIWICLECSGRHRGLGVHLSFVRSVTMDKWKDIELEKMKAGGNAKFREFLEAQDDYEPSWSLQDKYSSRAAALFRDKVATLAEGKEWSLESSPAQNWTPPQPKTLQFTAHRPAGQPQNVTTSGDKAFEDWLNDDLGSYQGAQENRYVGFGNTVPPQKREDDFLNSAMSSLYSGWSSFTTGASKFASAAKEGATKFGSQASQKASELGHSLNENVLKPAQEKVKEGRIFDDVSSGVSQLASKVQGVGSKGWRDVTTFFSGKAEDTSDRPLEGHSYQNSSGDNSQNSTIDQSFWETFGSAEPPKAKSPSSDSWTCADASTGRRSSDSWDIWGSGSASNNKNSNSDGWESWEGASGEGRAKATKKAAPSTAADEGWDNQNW
Sequence of SWI/SNF-related matrix-associated actin-dependent regulator of chromatin subfamily A member 2 (P51531 whole entry): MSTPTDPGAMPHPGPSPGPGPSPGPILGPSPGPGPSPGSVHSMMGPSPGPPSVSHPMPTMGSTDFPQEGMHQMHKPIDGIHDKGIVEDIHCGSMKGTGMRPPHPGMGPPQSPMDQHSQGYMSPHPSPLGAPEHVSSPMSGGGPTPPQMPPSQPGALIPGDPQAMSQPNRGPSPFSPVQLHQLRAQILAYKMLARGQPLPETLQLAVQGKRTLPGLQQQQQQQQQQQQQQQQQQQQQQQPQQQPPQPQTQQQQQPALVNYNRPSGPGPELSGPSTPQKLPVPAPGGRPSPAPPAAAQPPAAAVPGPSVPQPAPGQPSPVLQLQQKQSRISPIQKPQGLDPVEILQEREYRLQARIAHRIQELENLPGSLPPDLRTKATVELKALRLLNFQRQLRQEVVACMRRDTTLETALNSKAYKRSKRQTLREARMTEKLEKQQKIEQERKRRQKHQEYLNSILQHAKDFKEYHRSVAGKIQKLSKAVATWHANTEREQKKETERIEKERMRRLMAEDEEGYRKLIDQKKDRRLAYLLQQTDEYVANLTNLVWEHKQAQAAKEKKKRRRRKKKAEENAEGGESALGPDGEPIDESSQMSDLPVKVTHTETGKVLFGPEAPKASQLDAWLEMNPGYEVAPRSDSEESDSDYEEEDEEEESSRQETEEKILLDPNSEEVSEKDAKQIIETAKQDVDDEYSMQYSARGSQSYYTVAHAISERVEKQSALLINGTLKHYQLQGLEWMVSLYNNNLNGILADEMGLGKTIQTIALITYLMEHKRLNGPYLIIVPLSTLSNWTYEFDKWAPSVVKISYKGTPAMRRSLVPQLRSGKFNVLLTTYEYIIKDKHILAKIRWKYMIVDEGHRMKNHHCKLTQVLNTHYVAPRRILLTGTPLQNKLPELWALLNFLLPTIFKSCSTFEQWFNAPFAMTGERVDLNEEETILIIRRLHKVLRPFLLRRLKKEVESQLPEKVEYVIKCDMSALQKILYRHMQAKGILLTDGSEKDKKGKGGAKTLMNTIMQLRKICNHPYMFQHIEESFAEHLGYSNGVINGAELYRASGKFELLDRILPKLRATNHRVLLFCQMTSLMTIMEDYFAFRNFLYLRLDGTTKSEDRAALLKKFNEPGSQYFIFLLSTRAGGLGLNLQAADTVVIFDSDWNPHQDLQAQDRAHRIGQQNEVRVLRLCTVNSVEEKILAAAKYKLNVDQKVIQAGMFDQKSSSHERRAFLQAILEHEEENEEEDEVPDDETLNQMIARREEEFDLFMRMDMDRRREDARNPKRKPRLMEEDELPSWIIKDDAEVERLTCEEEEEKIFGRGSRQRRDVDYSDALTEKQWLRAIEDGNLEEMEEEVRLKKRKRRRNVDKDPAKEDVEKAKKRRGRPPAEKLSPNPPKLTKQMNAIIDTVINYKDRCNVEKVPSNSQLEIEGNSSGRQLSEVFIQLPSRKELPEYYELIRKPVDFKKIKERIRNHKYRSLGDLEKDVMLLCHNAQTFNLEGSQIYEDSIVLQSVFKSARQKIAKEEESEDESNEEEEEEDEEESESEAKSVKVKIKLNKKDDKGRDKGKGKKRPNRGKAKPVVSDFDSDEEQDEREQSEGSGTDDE
Sequence of 5-hydroxytryptamine receptor 2A (P35363 whole entry): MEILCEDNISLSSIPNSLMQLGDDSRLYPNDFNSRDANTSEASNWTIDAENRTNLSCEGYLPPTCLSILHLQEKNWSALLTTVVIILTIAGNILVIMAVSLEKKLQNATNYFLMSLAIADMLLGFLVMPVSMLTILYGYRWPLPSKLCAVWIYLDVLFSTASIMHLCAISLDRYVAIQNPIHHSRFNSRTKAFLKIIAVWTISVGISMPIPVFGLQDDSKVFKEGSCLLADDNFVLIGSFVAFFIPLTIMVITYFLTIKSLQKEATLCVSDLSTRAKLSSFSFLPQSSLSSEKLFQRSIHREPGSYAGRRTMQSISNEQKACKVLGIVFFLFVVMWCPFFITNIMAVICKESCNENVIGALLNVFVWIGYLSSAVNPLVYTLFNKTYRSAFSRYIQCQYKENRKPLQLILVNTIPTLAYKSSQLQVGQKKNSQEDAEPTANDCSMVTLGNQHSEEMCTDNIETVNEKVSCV

Regarding `C/C=C/C=C\C(=O)Nc1cccc(C2=NOC3(C2)C[C@H](C(N)=O)N(C(=O)CC#N)C3)c1` (stereo partly drawn), the IC50 in [1] is > 66.6 µM (inactive); in [2], 3.34 µM (active).
A word on the CC50: it is the concentration giving 50% cytotoxicity. Broadly, the EC50 is the concentration giving half of the maximal effect. Take `c1ccc2c(c1)nnn2-c1ncnc2sccc12`: the CC50 in test [3] is 46.8 µM (active). The EC50 in test [4] and in test [5] was > 91.2 µM (inactive) throughout.
As to `CC(Nc1nc(N2CCNCC2)nc2ccccc12)c1ccccc1` (stereo not drawn), the EC50 in test [6] is 5.31 µM (active). Besides, the values for the IC50 in test [7] and in test [8] were 13.8 µM (active) and 37.9 µM (inactive), respectively.
Consider `Cc1nc2ccc(S(=O)(=O)Nc3cccc(-c4nc5cccnc5s4)c3)cc2s1`, for which the IC50 in test [9] was 2.01 µM (active).
With `O=C(CCCNC(=O)c1ccc(Cl)cc1)Nc1ccc(Br)cc1`, the IC50 is 119 µM (inactive) in [10], 83.4 µM (inactive) in test [11] and 7.11 µM (active) in [12].
For the compound `COc1ccc(NC(=O)CSc2nc(O)c3c(C(F)(F)F)cc(-c4cccs4)nc3n2)c(OC)c1`, the IC50 on Aminopeptidase N was 56.5 µM (active); in [14], 4.89 µM (active); in [15] it was 32.1 µM (active). Moreover, the EC50 in test [13] is 11.6 µM (active); with Streptococcus, 124 µM (active).
`O=C(NNC(=O)c1ccc(-n2cncn2)c([N+](=O)[O-])c1)c1ccccc1`: the IC50 in test [10] was 32.3 µM (inactive); in test [11], 83.3 µM (inactive); in test [12], 11.9 µM (inactive).
Regarding `O=C(Nc1cccc(OC(F)(F)F)c1)C1Cc2c(-c3ccc4c(c3)OCO4)ccnc2O1` (stereo not drawn), the IC50 in test [9] was 3.19 µM (active).
Turning to `COc1cc(NC(=O)COc2ccc([N+](=O)[O-])cc2)ccc1NC(=O)c1ccco1`, the IC50 in [16] was 33.6 µM (inactive).
Turning to `NC[C@H](O)c1ccc(O)c(O)c1` [NOREPINEPHRINE BITARTRATE], in test [17], the EC50 was 806 nM (active).
